We go through 19 molecules from patent US7960427B2, “5-hydroxyindole-3-carboxylate derivatives and uses thereof” (priority 2004, dated 2011).

Structures are written as SMILES. Converted amounts (≈) assume the structure as drawn. Counter-ions that a name gives are not always drawn.

One data set concerns the target T1, HIV-1 protease (Human immunodeficiency virus type 1 group M subtype B, UniProt P04585).
T1 construct: The genetically engineered target enzyme (HIV-1 protease, preserved at −85° C.)
Put plainly: Anti-HIV-1 protease activity (fluorescence labeled substrate). Format: biochemical. The method, then: HIV-1 protease can cut the fluorescence labeled substrate under optimal condition and reaction system, so the activity of enzyme is determined by the fluorescence in the product of enzymatic reaction. The samples are added into the reaction system to observe the inhibitive effect on the enzyme.
The samples and the reference drug Indinavir ([…].) were dissolved in DMSO or redistilled water for appropriate concentration. Each was diluted 5-fold and then added into the buffer containing fluorescence labeled substrate (MP Co.). The genetically engineered target enzyme (HIV-1 protease, preserved at −85° C.) was added to the buffer and incubated under the optimal reaction condition. The fluorescence was determined by FLUO star Galaxy fluorometer.

For a further data set, the system named is 2.2.15 cells. Briefly: Cytotoxicity (TC50) in 2.2.15 cells. Format: cell-based. The method, then: (§1) All compounds were evaluated for their anti-HBV activities, namely the ability to inhibit the replication of HBV DNA and the production of HBsAg and HBeAg in HBV-infected 2.2.15 cells.
(§2) The samples were dissolved in DMSO for appropriate concentrations, and then each was diluted 3-fold with culture medium. The 2.2.15 cells were planted into 96-well culture plates. […] The culture supernatants and 2.2.15 cells were collected respectively on the 8th plant day. The secretion concentrations of HBsAg and HBeAg in the culture supernatants were measured by RIA on SPRIA Kit for Detection of HBsAg and HBeAg (Beijing North Institute of Biological Technology), and the replication of HBV DNA was measured by dot hybridization with a^32PdCTP (FuRui Biological Technology Ltd., China).

The test system of another data set is HBV DNA. Put plainly: In vitro anti-HBV activity: replication of HBV DNA in 2.2.15 cells (dot hybridization). The format is cell-based, Hepatitis B virus (HBV). To be noted: for IC50: Hepatitis B virus, read-out: DNA replication IC50; for DNA replication SI: selectivity index. The procedure: as §1, §2

In general, IC50 refers to the point on the concentration scale where inhibition reaches its midpoint. On to `CCOC(=O)c1c(CSc2ccc(F)cc2)n(C)c2cc(Br)c(O)c(CN3CCN(C)CC3)c12` [Example 17, Ethyl 6-bromo-5-hydroxy-1-methyl-4-[(4-methyl-1-piperazinyl)methyl]-2-[(4-fluorophenyl)thiomethyl]-1H-indole-3-carboxylate dihydrochloride], for which the “inhibition ratio at 0.5 ug/ml” value on HIV-1 protease (sample concentration 0.5 ug/ml) is recorded as −6.1. For the same molecule, the “inhibition ratio at 2.0 ug/ml” value at HIV-1 protease (sample concentration 2.0 ug/ml) is −8.3. Moreover, the “inhibition ratio at 10 ug/ml” value at HIV-1 protease (sample concentration 10 ug/ml) is −13.0. At HIV-1 protease (sample concentration 50 ug/ml), the “inhibition ratio at 50 ug/ml” value is listed as −17.3. Moreover, at HIV-1 protease (sample concentration 250 ug/ml), the “inhibition ratio at 250 ug/ml” value came out at 27.6. In the data set on 2.2.15 cells, this molecule yielded a TC50 of 62.50 µg/mL. In the data set on HBV DNA, the IC50 is 17.8 µg/mL and the “DNA replication SI” value came to 3.5.
`CCOC(=O)c1c(C[S+]([O-])c2cccc(C)c2)n(C)c2cc(Br)c(O)c(Cn3ccnc3C)c12` (centres unmarked) [Example 134, Ethyl 6-bromo-5-hydroxy-1-methyl-4-[(2-methyl-1-imidazolyl)methyl]-2-[(3-methylphenyl)sulfinylmethyl]-1H-indole-3-carboxylate] showed a TC50 with 2.2.15 cells of 53.42 µg/mL (≈ 98.1 µM). In the data set with HBV DNA, the IC50 was found to be 3.8 µg/mL (≈ 6.98 µM) and the “DNA replication SI” value turned out to be 19.1.
`CCOC(=O)c1c(C[S+]([O-])c2ccccc2OC)n(C)c2cc(Br)c(O)c(Cn3ccnc3C)c12.Cl` (centres unmarked) [Example 135, Ethyl 6-bromo-5-hydroxy-1-methyl-4-[(2-methyl-1-imidazolyl)methyl]-2-[(2-methoxyphenyl)sulfinylmethyl]-1H-indole-3-carboxylate hydrochloride]: in the data set with 2.2.15 cells, the TC50 was 53.42 µg/mL. Further, in the data set with HBV DNA, the IC50 was 2.4 µg/mL and the “DNA replication SI” value was 22.3.
For `CCOC(=O)c1c(C[S+]([O-])c2c(Cl)cccc2Cl)n(C2CC2)c2cc(Br)c(O)c(Cn3ccnc3C)c12` (centres unmarked) [Example 137, Ethyl 6-bromo-1-cyclopropyl-5-hydroxy-4-[(2-methyl-1-imidazolyl)methyl]-2-[(2,6-dichlorophenyl)sulfinylmethyl]-1H-indole-3-carboxylate], in that order: 160.2 µg/mL (≈ 256 µM), 35.5 µg/mL (≈ 56.7 µM) and 4.51.
Take `CCOC(=O)c1c(C[S+]([O-])c2ccc(C)cc2)n(C)c2ccc(O)c(Cn3ccnc3C)c12` (centres unmarked) [Example 142, Ethyl 5-hydroxy-1-methyl-4-[(2-methyl-1-imidazolyl)methyl]-2-[(4-methylphenyl)sulfinylmethyl]-1H-indole-3-carboxylate]: in the data set with 2.2.15 cells, the TC50 was determined as 106.83 µg/mL (≈ 229 µM). Besides, in the data set with HBV DNA, the IC50 came out at 23.8 µg/mL (≈ 51.1 µM) and the “DNA replication SI” value is 4.49.
Taken in the same sequence, the figures for `CCOC(=O)c1c(C[S+]([O-])c2ccccc2)n(C)c2cc(Br)c(O)c(Cn3cncn3)c12` (centres unmarked) [Example 146, Ethyl 6-bromo-5-hydroxy-1-methyl-4-[(1H-1,2,4-triazol-1-yl)methyl]-2-(phenylsulfinylmethyl)-1H-indole-3-carboxylate] were 40.0 µg/mL (≈ 77.3 µM), 13.1 µg/mL (≈ 25.3 µM) and 3.06.
In the data set on 2.2.15 cells, `CCOC(=O)c1c(C[S+]([O-])c2ccccc2OC)n(C)c2cc(Br)c(O)c(CNC(=N)N)c12.Cl` (centres unmarked) [Example 151, Ethyl 6-bromo-4-(guanidinylmethyl)-5-hydroxy-1-methyl-2-[(2-methoxyphenyl)-sulfinylmethyl]-1H-indole-3-carboxylate hydrochloride] displayed a TC50 of 64.15 µg/mL. Besides, in the data set on HBV DNA, the IC50 amounted to 1.8 µg/mL and the “DNA replication SI” value was 35.6.
Taken in the same sequence, the figures for `CCOC(=O)c1c(C[S+]([O-])c2ccc(C)cc2)n(C)c2cc(Br)c(O)c(CNC(=N)N)c12.Cl` (centres unmarked) [Example 152, Ethyl 6-bromo-4-(guanidinylmethyl)-5-hydroxy-1-methyl-2-[(4-methylphenyl)sulfinylmethyl]-1H-indole-3-carboxylate hydrochloride] were 192.45 µg/mL, 10.2 µg/mL and 18.8.
With `CCOC(=O)c1c(CS(=O)(=O)Cc2ccco2)n(C2CC2)c2cc(Br)c(O)c(Cn3ccnc3)c12` [Example 162, Ethyl 6-bromo-1-cyclopropyl-5-hydroxy-4-[(1-imidazolyl)methyl]-2-[(2-furylmethyl)sulfonylmethyl]-1H-indole-3-carboxylate], in the data set with 2.2.15 cells, the TC50 turned out to be 128.30 µg/mL (≈ 228 µM). Further, in the data set on HBV DNA, the IC50 came to 51.7 µg/mL (≈ 92 µM) and the “DNA replication SI” value is on record as 2.48.
With `CCOC(=O)c1c(CS(=O)(=O)Cc2ccc(F)cc2)n(C)c2cc(Br)c(O)c(Cn3ccnc3)c12` [Example 163, Ethyl 6-bromo-5-hydroxy-4-[(1-imidazolyl)methyl]-1-methyl-2-[(4-fluorobenzyl)sulfonylmethyl]-1H-indole-3-carboxylate], the TC50 in the data set with 2.2.15 cells turned out to be 21.39 µg/mL (≈ 37.9 µM). In the data set with HBV DNA, the IC50 was found to be 0.68 µg/mL (≈ 1.2 µM) and the “DNA replication SI” value is 31.45.
`CCOC(=O)c1c(CS(=O)(=O)c2ccc(C)cc2)n(C)c2ccc(O)c(Cn3ccnc3)c12` [Example 164, Ethyl 5-hydroxy-4-[(1-imidazolyl)methyl]-1-methyl-2-[(4-methylphenyl)sulfonylmethyl]-1H-indole-3-carboxylate] showed a TC50 in the data set on 2.2.15 cells of 17.7 µg/mL (≈ 37.9 µM). Moreover, in the data set on HBV DNA, the IC50 is 2 µg/mL (≈ 4.28 µM) and the “DNA replication SI” value is 8.9.
For `CCOC(=O)c1c(CS(=O)(=O)Cc2ccccc2F)n(C2CC2)c2cc(Br)c(O)c(Cn3ccnc3C)c12` [Example 165, Ethyl 6-bromo-1-cyclopropyl-5-hydroxy-4-[(2-methyl-1-imidazolyl)methyl]-2-[(2-fluorobenzyl)sulfonylmethyl]-1H-indole-3-carboxylate], in that order: 7.76 µg/mL (≈ 12.8 µM), 3.14 µg/mL (≈ 5.19 µM) and 2.47.
Taken in the same sequence, the figures for `CCOC(=O)c1c(CS(=O)(=O)c2ccccc2)n(C)c2cc(Br)c(O)c(Cn3ccnc3C)c12` [Example 166, Ethyl 6-bromo-5-hydroxy-1-methyl-4-[(2-methyl-1-imidazolyl)methyl]-2-(phenylsulfonylmethyl)-1H-indole-3-carboxylate] were 53.42 µg/mL (≈ 97.8 µM), 7.53 µg/mL (≈ 13.8 µM) and 7.09.
`CCOC(=O)c1c(CS(=O)(=O)Cc2ccccc2)n(C)c2cc(Br)c(O)c(Cn3ccnc3C)c12` [Example 168, Ethyl 6-bromo-5-hydroxy-1-methyl-4-[(2-methyl-1-imidazolyl)methyl]-2-(benzylsulfonylmethyl)-1H-indole-3-carboxylate] gave a TC50 with 2.2.15 cells of 35.61 µg/mL (≈ 63.5 µM). Also, in the data set on HBV DNA, the IC50 came to 7.04 µg/mL (≈ 12.6 µM) and the “DNA replication SI” value was found to be 5.06.
For `CCOC(=O)c1c(CS(=O)(=O)Cc2ccccc2)n(C)c2cc(Br)c(O)c(CNC(=N)N)c12` [Example 173, Ethyl 6-bromo-4-(guanidinylmethyl)-5-hydroxy-1-methyl-2-(benzylsulfonylmethyl)-1H-indole-3-carboxylate], in that order: 24.69 µg/mL (≈ 45.9 µM), 5.04 µg/mL (≈ 9.38 µM) and 4.90.
In the data set with 2.2.15 cells, `CCOC(=O)c1c(CS(=O)(=O)c2ccc(C(F)(F)F)cc2)n(C)c2cc(Br)c(O)c(Cn3ccnc3C)c12` [Example 180, Ethyl 6-bromo-5-hydroxy-1-methyl-4-[(2-methyl-1-imidazolyl)methyl]-2-[(4-trifluoromethylphenyl)sulfonylmethyl]-1H-indole-3-carboxylate] returned a TC50 of 51.36 µg/mL (≈ 83.6 µM). In addition, in the data set on HBV DNA, the IC50 was found to be 3.56 µg/mL (≈ 5.79 µM) and the “DNA replication SI” value was 14.43.
Taken in the same sequence, the figures for `CCOC(=O)c1c(C[S+]([O-])Cc2ccccc2F)n(C2CC2)c2cc(Br)c(O)c(Cn3ccnc3C)c12` (centres unmarked) [Example 183, Ethyl 6-bromo-1-cyclopropyl-5-hydroxy-4-[(2-methyl-1-imidazolyl)methyl]-2-[(2-fluorobenzyl)sulfinylmethyl]-1H-indole-3-carboxylate] were 37.04 µg/mL (≈ 62.9 µM), 3.45 µg/mL (≈ 5.86 µM) and 10.74.
`CCOC(=O)c1c(C[S+]([O-])Cc2ccc(F)cc2)n(C)c2cc(Br)c(O)c(Cn3ccnc3C)c12` (centres unmarked) [Example 184, Ethyl 6-bromo-5-hydroxy-1-methyl-4-[(2-methyl-1-imidazolyl)methyl]-2-[(4-fluorobenzyl)sulfinylmethyl]-1H-indole-3-carboxylate] yielded a TC50 in the data set on 2.2.15 cells of 53.42 µg/mL (≈ 95 µM). Also, in the data set on HBV DNA, the IC50 is 0.94 µg/mL (≈ 1.67 µM) and the “DNA replication SI” value is on record as 56.83.
For `CCOC(=O)c1c(CS(=O)(=O)Cc2ccc(F)cc2)n(C)c2cc(Br)c(O)c(Cn3ccnc3C)c12` [Example 185, Ethyl 6-bromo-5-hydroxy-1-methyl-4-[(2-methyl-1-imidazolyl)methyl]-2-[(4-fluorobenzyl)sulfonylmethyl]-1H-indole-3-carboxylate], in that order: 12.35 µg/mL (≈ 21.3 µM), 1.3 µg/mL (≈ 2.25 µM) and 9.5.
